The source made the active and inactive calls.
Experiments:
Cytochrome P450 2C9 = Cytochrome P450 2C9 (Homo sapiens, UniProt P11712)
Cytochrome P450 1A2 = target: T1, Cytochrome P450 1A2 (Homo sapiens, UniProt P05177);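 note: PubChem cytochrome P450 panel assay, CYP1A2 panel member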
T1 sequence (P05177 whole entry): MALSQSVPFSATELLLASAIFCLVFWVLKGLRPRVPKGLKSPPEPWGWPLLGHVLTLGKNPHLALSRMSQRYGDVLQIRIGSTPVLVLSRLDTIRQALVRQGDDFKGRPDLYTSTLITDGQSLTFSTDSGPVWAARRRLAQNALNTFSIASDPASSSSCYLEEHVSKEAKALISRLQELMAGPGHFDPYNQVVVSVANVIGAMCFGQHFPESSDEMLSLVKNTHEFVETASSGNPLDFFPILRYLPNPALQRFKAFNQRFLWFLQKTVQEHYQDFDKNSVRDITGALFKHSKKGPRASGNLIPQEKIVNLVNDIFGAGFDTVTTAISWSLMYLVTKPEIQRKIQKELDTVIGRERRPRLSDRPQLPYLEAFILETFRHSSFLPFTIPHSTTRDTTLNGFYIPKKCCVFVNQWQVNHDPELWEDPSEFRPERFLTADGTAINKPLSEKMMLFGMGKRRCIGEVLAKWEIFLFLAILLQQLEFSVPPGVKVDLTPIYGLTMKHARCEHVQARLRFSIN

[1] = target: T2, Rac GTPase-activating protein 1 (Homo sapiens, UniProt Q9H0H5); assay: blockers of MgcRacGAP-driven Rac1 GTP hydrolysis – biochemical, ADP Hunter fluorescence, primary and confirmatory, confirmation (AID 624330); type: functional
T2 sequence (Q9H0H5 whole entry): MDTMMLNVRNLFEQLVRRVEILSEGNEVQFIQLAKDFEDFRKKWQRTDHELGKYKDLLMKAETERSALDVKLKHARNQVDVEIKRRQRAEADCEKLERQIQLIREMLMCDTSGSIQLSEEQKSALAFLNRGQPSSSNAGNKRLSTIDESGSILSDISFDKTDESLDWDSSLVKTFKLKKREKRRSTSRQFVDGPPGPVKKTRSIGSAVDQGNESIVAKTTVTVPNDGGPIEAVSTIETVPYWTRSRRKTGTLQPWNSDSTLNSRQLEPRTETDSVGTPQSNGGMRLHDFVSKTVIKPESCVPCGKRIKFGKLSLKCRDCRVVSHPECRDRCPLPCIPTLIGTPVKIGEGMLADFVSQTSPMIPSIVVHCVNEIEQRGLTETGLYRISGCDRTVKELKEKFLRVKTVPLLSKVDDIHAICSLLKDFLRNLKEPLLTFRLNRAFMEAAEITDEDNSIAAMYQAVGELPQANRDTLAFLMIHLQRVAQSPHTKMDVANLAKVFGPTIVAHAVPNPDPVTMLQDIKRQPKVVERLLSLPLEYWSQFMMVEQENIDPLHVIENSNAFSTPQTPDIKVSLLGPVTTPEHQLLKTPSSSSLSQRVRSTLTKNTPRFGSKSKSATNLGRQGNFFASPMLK

[2] = target: T3, Replicative DNA helicase DnaB (Mycobacterium tuberculosis, UniProt P9WMR3); assay: DnaB intein splicing inhibitors, dose response, biochemical, cell-free fluorescence (AID 449749); type: functional
T3 sequence (P9WMR3 whole entry): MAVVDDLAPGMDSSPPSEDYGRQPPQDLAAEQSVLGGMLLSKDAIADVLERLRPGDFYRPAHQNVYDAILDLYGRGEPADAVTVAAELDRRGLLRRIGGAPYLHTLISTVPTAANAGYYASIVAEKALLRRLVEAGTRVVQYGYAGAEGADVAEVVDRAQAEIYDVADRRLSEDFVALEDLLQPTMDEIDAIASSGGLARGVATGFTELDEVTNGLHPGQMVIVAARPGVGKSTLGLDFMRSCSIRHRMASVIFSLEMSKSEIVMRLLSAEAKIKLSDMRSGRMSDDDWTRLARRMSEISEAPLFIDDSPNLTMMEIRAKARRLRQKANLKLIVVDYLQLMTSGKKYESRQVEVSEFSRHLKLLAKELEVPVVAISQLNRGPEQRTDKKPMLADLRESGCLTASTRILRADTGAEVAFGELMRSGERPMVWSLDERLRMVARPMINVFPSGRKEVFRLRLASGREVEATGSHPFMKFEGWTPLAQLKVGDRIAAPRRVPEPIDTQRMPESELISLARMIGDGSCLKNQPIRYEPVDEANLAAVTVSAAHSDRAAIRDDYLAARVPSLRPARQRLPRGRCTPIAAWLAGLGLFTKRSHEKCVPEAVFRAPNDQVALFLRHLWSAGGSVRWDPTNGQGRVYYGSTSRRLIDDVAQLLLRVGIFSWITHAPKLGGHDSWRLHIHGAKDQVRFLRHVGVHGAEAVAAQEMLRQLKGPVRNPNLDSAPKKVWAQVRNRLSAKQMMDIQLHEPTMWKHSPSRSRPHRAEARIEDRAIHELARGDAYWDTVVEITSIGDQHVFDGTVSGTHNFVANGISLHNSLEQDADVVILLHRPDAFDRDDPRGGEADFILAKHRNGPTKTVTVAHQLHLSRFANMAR

Protein RecA = target: T4, Protein RecA (Mycobacterium tuberculosis, UniProt P9WHJ3); assay: Fluorescence Cell-Free Homogeneous Dose Retest to Identify Inhibitors of RecA-Intein Splicing Activity. [Related pubchem assays (depositor defined):AID2097, AID2223, AID489010, AID492950]; type: functional
T4 sequence (P9WHJ3 whole entry): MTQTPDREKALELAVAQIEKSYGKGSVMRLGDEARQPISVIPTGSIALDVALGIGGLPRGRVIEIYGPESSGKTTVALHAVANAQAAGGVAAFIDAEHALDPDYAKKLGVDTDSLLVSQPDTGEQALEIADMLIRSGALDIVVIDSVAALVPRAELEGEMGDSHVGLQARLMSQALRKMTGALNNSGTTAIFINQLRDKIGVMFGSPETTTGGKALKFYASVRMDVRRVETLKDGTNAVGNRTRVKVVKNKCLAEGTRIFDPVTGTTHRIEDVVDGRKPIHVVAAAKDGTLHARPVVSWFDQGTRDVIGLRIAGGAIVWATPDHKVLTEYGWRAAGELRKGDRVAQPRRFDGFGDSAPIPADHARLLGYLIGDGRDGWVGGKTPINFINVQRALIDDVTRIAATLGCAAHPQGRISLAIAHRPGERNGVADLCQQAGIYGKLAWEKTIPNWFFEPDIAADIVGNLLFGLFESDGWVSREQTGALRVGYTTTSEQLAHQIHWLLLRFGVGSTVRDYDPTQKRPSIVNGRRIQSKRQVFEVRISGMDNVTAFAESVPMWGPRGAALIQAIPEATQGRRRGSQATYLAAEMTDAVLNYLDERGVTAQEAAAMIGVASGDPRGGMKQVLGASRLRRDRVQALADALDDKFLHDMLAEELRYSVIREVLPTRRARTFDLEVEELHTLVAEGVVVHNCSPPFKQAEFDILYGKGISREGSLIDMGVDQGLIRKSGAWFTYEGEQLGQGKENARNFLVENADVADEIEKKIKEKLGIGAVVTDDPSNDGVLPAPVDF

[3] = Luminescence Cell-Based Dose Retest to Confirm Inhibitors of Cancer Stem Cells. [Related pubchem assays (depositor defined):AID2717, AID2721]; type: functional; conditions: Homo sapiens
Paired box protein Pax-8 = Paired box protein Pax-8 (Homo sapiens, UniProt Q06710); assay: PAX8 transcriptional activity inhibition in RMG-I – RMG-I cells, luciferase, cherry-pick, dose response (AID 687027); type: functional, cell-based;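 note: luciferase reporter driven by Pax8 target thyroperoxidase promoter measured by SteadyGlo luminescence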
Paired box protein Pax-8, sequence (Q06710 whole entry): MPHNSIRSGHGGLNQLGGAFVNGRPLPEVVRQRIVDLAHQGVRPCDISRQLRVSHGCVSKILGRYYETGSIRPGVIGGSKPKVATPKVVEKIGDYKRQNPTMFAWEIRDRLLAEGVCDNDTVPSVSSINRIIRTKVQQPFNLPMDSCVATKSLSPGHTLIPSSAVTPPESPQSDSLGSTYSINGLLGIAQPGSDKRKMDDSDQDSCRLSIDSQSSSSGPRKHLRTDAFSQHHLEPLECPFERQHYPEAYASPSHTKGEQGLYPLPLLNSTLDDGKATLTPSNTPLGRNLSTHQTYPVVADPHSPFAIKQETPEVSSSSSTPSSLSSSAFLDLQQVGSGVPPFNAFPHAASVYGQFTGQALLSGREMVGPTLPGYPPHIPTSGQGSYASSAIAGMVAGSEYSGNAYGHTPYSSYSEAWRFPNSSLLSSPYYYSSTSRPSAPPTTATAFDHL

Cytochrome P450 3A4 = Cytochrome P450 3A4 (Homo sapiens, UniProt P08684);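 note: CYP3A4 tested as one member of a cytochrome P450 panel screen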
Cytochrome P450 3A4, sequence (P08684 whole entry): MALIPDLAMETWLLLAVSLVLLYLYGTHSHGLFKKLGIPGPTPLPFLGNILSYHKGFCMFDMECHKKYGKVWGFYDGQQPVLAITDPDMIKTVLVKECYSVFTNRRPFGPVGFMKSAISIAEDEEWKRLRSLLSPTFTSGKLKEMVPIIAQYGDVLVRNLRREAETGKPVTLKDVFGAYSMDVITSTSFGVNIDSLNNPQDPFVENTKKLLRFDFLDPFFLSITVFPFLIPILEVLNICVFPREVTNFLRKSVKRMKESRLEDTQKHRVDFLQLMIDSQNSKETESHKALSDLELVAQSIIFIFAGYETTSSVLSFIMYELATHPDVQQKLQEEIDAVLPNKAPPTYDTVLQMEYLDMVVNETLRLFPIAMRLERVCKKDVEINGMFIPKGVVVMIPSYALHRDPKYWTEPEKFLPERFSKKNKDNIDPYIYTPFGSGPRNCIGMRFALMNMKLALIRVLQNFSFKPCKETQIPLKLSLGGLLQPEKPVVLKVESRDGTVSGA

Cytochrome P450 2C19 = Cytochrome P450 2C19 (Homo sapiens, UniProt P33261); assay: Cytochrome panel assay with activity outcomes. Panel member name: p450-cyp2c19 Compounds with AC50 equal or less than 10 uM are considered active; type: functional
Cytochrome P450 2C19, sequence (P33261 whole entry): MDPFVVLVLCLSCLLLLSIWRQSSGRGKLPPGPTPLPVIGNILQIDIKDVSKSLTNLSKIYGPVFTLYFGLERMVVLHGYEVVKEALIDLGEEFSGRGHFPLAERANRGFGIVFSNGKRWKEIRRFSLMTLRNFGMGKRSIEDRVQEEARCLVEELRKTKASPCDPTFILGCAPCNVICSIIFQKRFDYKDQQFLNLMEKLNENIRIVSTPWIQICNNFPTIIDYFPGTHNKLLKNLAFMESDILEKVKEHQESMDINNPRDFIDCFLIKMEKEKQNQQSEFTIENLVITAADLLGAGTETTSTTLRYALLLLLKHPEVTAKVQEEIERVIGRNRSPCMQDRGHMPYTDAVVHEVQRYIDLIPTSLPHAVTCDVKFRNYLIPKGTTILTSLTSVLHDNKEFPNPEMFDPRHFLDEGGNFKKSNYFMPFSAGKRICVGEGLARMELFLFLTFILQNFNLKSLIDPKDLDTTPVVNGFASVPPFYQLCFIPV

Streptokinase A = target: T5, Streptokinase A (Streptococcus pyogenes serotype M1, UniProt P10520); assay: viability-normalized secreted streptokinase activity reduction – plasminogen activation absorbance, OD405, dose response (AID 1914); type: functional, Streptococcus pyogenes M1 GAS;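 note: secreted streptokinase activity via plasminogen activation per viability signal from cell pellet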
T5 sequence (P10520 whole entry): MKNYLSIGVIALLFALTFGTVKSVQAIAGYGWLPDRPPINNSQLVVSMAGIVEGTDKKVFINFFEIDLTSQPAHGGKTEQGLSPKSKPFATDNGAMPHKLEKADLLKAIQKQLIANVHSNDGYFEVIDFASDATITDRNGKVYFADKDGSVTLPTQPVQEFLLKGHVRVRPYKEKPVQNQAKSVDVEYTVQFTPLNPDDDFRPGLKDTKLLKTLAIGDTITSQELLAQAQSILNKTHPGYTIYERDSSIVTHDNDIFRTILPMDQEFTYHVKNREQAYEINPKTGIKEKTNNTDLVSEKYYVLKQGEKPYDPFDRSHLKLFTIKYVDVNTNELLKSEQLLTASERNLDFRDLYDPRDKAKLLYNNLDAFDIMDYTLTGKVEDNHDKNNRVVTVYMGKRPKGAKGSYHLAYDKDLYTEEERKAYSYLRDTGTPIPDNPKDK

Cytochrome P450 2C9, sequence (P11712 whole entry): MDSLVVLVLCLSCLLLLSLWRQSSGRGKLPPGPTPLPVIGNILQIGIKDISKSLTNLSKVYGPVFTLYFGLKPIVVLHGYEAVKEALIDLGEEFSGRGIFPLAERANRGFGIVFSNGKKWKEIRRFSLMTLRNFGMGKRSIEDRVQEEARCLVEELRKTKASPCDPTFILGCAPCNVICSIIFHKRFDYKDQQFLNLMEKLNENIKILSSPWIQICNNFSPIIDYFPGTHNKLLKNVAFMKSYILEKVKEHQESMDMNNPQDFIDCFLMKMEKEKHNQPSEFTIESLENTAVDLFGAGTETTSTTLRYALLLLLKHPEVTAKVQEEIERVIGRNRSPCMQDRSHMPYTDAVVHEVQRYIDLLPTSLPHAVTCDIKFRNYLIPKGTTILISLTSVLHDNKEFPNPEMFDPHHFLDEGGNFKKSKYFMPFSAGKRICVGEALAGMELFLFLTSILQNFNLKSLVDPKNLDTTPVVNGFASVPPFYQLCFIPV

CCC(C)(C)n1nnnc1C(c1cc2cc3c(cc2nc1O)OCO3)N1CCCCC1 (configuration not stated)
AC50 (Cytochrome P450 2C9): 0.02 µM (inconclusive) | AC50 (Cytochrome P450 1A2): 17.8 µM (inconclusive)

CC1CCC/C(=C\c2ccc(O)cc2)C1=O (configuration not stated)
IC50 [1]: 26.6 µM (active)

Cc1nc(Nc2ccc(O)cc2)c2c3c(sc2n1)CCCC3
IC50 [1]: 28.8 µM (active) | AC50 [2]: > 380 µM (inactive) | EC50 (Protein RecA): 125 µM (active)

CCCCn1c(C)cc2cc(O)ccc21
IC50 [1]: 26.9 µM (active)

CC1(C)Cc2ccccc2C(/C=C(\O)c2ccccc2)=N1
AC50 [3]: 1.97 µM (active)

CC1=CC(C)(C)N(C(=O)CNC2CCCC2)c2cc(C)ccc21
IC50 [1]: 158 µM (active)

COCCN(C(=O)C(C)C)c1nnc(-c2ccc(C(C)(C)C)cc2)s1
AC50 [3]: 2.42 µM (active)

Cc1ccccc1C(OCC(O)CN1CCN(CCO)CC1)c1ccccc1 (configuration not stated)
IC50 [1]: 80.2 µM (active)

COc1cccc(Nc2ncc3nc(-c4ccccc4)c(=O)n(Cc4cccs4)c3n2)c1
AC50 (Cytochrome P450 1A2): 20 µM (inconclusive)

Cc1ccc(S(=O)(=O)N2CCCCC2)cc1NC(=O)Cc1c[nH]c2ccccc12
AC50 (Paired box protein Pax-8): 19.5 µM (active)

CCOC(=O)c1nc(O)c2ccccc2c1O
AC50 [2]: > 380 µM (inactive) | EC50 (Protein RecA): 5.23 µM (active)

COCC(=O)O[C@]1(CCN(C)CCCc2nc3ccccc3[nH]2)CCc2cc(F)ccc2[C@@H]1C(C)C [MIBEFRADIL]
AC50 (Cytochrome P450 1A2): 31.6 µM (inconclusive)

O=C(CCCN1C(=O)/C(=C\c2ccccc2)SC1=S)Nc1ccc(O)cc1C(=O)O
AC50 [2]: 15.4 µM (active) | EC50 (Protein RecA): 15.1 µM (active)

CN1C(=O)COc2c(C(=O)N[C@@H]3CN4CCC3CC4)cc(Cl)cc21
AC50 (Cytochrome P450 1A2): 39.8 µM (inconclusive)

Cc1n[nH]c2c1C(c1ccc(Cl)cc1)C(C#N)=C(N)O2 (configuration not stated)
AC50 [2]: 9.8 µM (active) | EC50 (Protein RecA): 6.1 µM (active)

CC(C)(C)c1nnc(N/N=C/c2ccc(O)cc2)n(N)c1=O
IC50 [1]: 123 µM (active)

Cc1c(O)ccc(NC(=O)/C=C/c2ccccc2)c1C
IC50 [1]: 41.8 µM (active)

O=C(CNC(=O)c1ccncc1)N/N=C/c1ccc(O)cc1O
IC50 [1]: 75.5 µM (active)

O=C(O)c1cc2cc(OCc3ccccc3)ccc2[nH]1
AC50 (Cytochrome P450 2C9): 25.1 µM (inconclusive) | AC50 (Cytochrome P450 1A2): 6.31 µM (inconclusive)

COc1cc(C(c2c(C)n[nH]c2O)c2c(C)n[nH]c2O)cc(Br)c1OC
AC50 [2]: 0.756 µM (active) | EC50 (Protein RecA): 0.274 µM (active)

CCN(C(=O)Cn1c(=O)oc2ccccc21)c1cccc(C(F)(F)F)c1
AC50 (Cytochrome P450 1A2): 39.8 µM (inconclusive) | AC50 (Cytochrome P450 3A4): 7.08 µM (inconclusive)

N[C@@H](COP(=O)(O)O)C(=O)O [DEXFOSFOSERINE]
AC50 (Cytochrome P450 1A2): 25.1 µM (inconclusive) | AC50 (Cytochrome P450 2C19): inconclusive | AC50 (Cytochrome P450 3A4): 0.794 µM (inconclusive)

COC(=O)[C@@]12C[C@@H](CC(=O)N3CCN(C(=O)c4ccco4)CC3)C(=O)N(Cc3ccccc3)C1=CCC(C)(C)C2
AC50 (Paired box protein Pax-8): 1.81 µM (active)

COc1ccc(Br)cc1[C@H]1[C@H]2C=CC[C@@H](C)[C@@H]2C(=O)N1Cc1ccccc1
AC50 [2]: 2.46 µM (active) | EC50 (Protein RecA): 163 µM (active)

Cc1cc(-c2c(C)[nH]n(-c3ccc(Cl)cc3)c2=O)n[nH]1
EC50 (Streptokinase A): > 150 µM (not active)

CCC#CCOCC(=S)Nc1ccccc1
AC50 (Cytochrome P450 1A2): 15.8 µM (inconclusive)

O=C(CN1CCN(c2ccc(O)cc2)CC1)NCC(=O)Nc1ccc(F)c(F)c1F
IC50 [1]: 47 µM (active)

CC(C)c1n[nH]c2c1C(c1cccc(OC(=O)N3CCOCC3)c1)C(C#N)=C(N)O2 (configuration not stated)
AC50 [2]: 33.4 µM (active) | EC50 (Protein RecA): 5.8 µM (active)

Cc1ccc(C)c(OCCCCN2CCCCC2)c1
IC50 [1]: 176 µM (active)

CCC(=O)OCc1c(C(F)(F)F)nn(C)c1Sc1ccc(F)cc1
AC50 (Cytochrome P450 1A2): 12.6 µM (inconclusive) | AC50 (Cytochrome P450 3A4): 25.1 µM (inconclusive)

COc1ccc(NC(=O)Nc2ccc3c(c2)C(=O)N([C@@H](C)CO)C[C@@H](C)[C@@H](CN(C)Cc2ccc(C(F)(F)F)cc2)O3)cc1
AC50 (Paired box protein Pax-8): 13.9 µM (active)

CCN(CC)C[C@@H]1CCCCN1CC(=O)N1c2ccccc2C(=O)Nc2cccnc21
AC50 (Cytochrome P450 1A2): 31.6 µM (inconclusive)

O=[N+]([O-])c1ccc(N/N=C/c2sc(N3CCOCC3)nc2-c2ccccc2)c(S(=O)(=O)Nc2ccc(Cl)cc2)c1
AC50 (Paired box protein Pax-8): 1.99 µM (active)
